Experiments:
[1] = target: fumarate reductase (FrdABCD), FrdB subunit (Escherichia coli, UniProt P0A8Q0+P0A8Q3+P0AC47, P0AC47:K229L); experiment: biochemical
[2] = target: fumarate reductase (FrdABCD), FrdB subunit (Escherichia coli, UniProt P0A8Q0+P0A8Q3+P0AC47, P0AC47:K229R); experiment: biochemical
[3] = target: fumarate reductase (FrdABCD), FrdB subunit (Escherichia coli, UniProt P0A8Q0+P0A8Q3+P0AC47, P0AC47:S204R); experiment: biochemical
[4] = target: fumarate reductase (FrdABCD), FrdB subunit (Escherichia coli, UniProt P0A8Q0+P0A8Q3+P0AC47); experiment: fluorescence quench titration in enriched membranes; format: binding
[5] = target: fumarate reductase (FrdABCD), FrdB subunit (Escherichia coli, UniProt P0A8Q0+P0A8Q3+P0AC47, P0AC47:K229E); experiment: biochemical

CCCCCCCc1cc(O)c2ccccc2[n+]1[O-] [HOQNO, 2-n-heptyl-4-hyroxyquinoline-N-oxide]
Kd [1]: 110 nM
Kd [2]: 80 nM
Kd [3]: 5 nM
Kd [4]: 5 nM
Kd [5]: 110 nM
